The results in this text go back to US20240279215A1 (Cytokinetics, Incorporated, priority 2022, published 2024).

This assay has as its target human NAMPT (Homo sapiens (Human), UniProt P43490). Put plainly: NMN fluorescence biochemical assay (human recombinant NAMPT enzyme assay). The procedure:
Compounds described herein were assayed for their ability to stimulate the synthesis of nicotinamide mononucleotide (NMN) by the enzyme NAMPT. The human recombinant enzyme assay measures the activation of the enzyme activity by compounds using recombinant enzyme and substrates in a buffered cell-free system. The assay conditions closely mimic cellular environments. Dose responses were measured using an assay to detect the formation of nicotinamide mono-nucleotide. All experiments were performed in the 384-well format. Generally, 0.5 μL of DMSO containing varying concentrations of the test compound was mixed with 10 μL of the enzyme reagent solution. Enzyme reactions were initiated with the addition of […] containing the substrates. The final assay conditions were as follows: 6 nM human NAMPT, 2.5 mM ATP, 20 μM PRPP and 150 μM nicotinamide in 50 mM HEPES, pH 7.2, 1 mM DTT, 1 mM CHAPS 50 mM NaCl, 100 mM MgCl2. Following an incubation of 60 min at ambient temperature, 10 μL of 20% acetophenone in DMSO was added, followed by 10 μL of 2 M KOH and 40 μL of formic acid. The plates were read for fluorescence (Excitation/Emission=355 nm/460 nm) using an EnVision plate reader after 40 mins of incubation at ambient temperature.

Structures are written as SMILES. pEC50: −log10 of the molar value.

human NAMPT, sequence (P43490 whole entry): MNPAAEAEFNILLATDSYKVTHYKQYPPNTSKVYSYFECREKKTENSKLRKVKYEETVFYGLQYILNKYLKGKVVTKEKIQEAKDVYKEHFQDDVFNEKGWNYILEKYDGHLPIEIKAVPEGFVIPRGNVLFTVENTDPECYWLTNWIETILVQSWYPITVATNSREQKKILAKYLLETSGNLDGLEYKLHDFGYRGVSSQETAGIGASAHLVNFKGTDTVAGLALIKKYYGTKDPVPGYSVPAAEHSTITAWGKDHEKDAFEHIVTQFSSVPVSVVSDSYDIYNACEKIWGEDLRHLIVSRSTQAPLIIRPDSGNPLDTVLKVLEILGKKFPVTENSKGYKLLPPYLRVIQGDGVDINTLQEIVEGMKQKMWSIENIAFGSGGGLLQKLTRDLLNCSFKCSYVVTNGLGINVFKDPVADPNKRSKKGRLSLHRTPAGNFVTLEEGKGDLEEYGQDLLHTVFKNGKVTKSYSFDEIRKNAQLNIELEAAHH

Turning to `COc1ccc(COC(=O)Nc2ccc(CC3CCN(C4COC4)CC3)cc2)cc1` [Compound 67, 4-methoxybenzyl (4-((1-(oxetan-3-yl)piperidin-4-yl)methyl)phenyl)carbamate], the “AC1.4 Human” value came to 0.59 µM and the pEC50 was 4.67.
Take `C[C@H](NC(=O)[C@@H]1C[C@@H]2[C@H](C1)C2(F)F)c1ccc(NC(=O)OCc2cnco2)cc1` [Compound 68, 1,3-oxazol-5-ylmethyl N-{4-[(1S)-1-{[(1R,3s,5S)-6,6-difluorobicyclo[3.1.0]hexan-3-yl]formamido}ethyl]phenyl}carbamate]: the “AC1.4 Human” value is 0.59 µM and the negative-log EC50 (pEC50) is 4.96.
Consider `CN(Cc1ccc(NC(=O)OCc2ccc(Cl)cc2)cc1)C(=O)c1cn[nH]c1F` [Compound 69, (4-chlorophenyl)methyl N-(4-{[1-(3-fluoro-2H-pyrazol-4-yl)-N-methylformamido]methyl}phenyl)carbamate], for which the “AC1.4 Human” value worked out at 0.59 µM and the pEC50 was 5.51.
As to `CN(Cc1ccc(NC(=O)OCc2ccc(Cl)cc2)cc1)C(=O)c1n[nH]cc1F` [Compound 71, (4-chlorophenyl)methyl N-(4-{[1-(4-fluoro-1H-pyrazol-3-yl)-N-methylformamido]methyl}phenyl)carbamate], the “AC1.4 Human” value came out at 0.61 µM and the negative logarithm of the EC50 (pEC50) was 5.60.
For `COC1CCN(C(=O)N[C@@H](C)c2ccc(NC(=O)OCc3ccc(Cl)cc3)cc2)CC1` [Compound 72, 4-chlorobenzyl (S)-(4-(1-(4-methoxypiperidine-1-carboxamido)ethyl)phenyl)carbamate], the “AC1.4 Human” value was 0.62 µM and the pEC50 was 5.28.
Consider `O=C(Nc1ccc(CN2CCN(c3ncccn3)CC2)cc1)OCc1ccc(Cl)cc1` [Compound 73, 4-chlorobenzyl (4-((4-(pyrimidin-2-yl)piperazin-1-yl)methyl)phenyl)carbamate], for which the “AC1.4 Human” value worked out at 0.62 µM and the pEC50 is 5.75.
For the compound `CN(Cc1ccc(NC(=O)OCc2ccc(Cl)cc2)cc1)C(=O)c1ccnn1C1CCC1` [Compound 74, (4-chlorophenyl)methyl N-(4-{[1-(2-cyclobutylpyrazol-3-yl)-N-methylformamido]methyl}phenyl)carbamate], the “AC1.4 Human” value was determined as 0.64 µM and the pEC50 was 5.85.
For `C[C@H](NC(=O)C1CC(F)(F)C1)c1ccc(NC(=O)OCc2cnco2)cc1` [Compound 75, 1,3-oxazol-5-ylmethyl N-{4-[(1S)-1-[(3,3-difluorocyclobutyl)formamido]ethyl]phenyl}carbamate], the “AC1.4 Human” value stood at 0.64 µM and the pEC50 was 4.58.
Consider `CCc1ccc(C(=O)N[C@@H](C)c2ccc(NC(=O)OCc3ccc(Cl)cc3)cc2)cn1` [Compound 76, (4-chlorophenyl)methyl N-{4-[(1S)-1-[(6-ethylpyridin-3-yl)formamido]ethyl]phenyl}carbamate], for which the “AC1.4 Human” value is 0.64 µM and the negative-log EC50 (pEC50) was 6.05.
As to `COCCn1nccc1C(=O)N(C)Cc1ccc(NC(=O)OCc2ccc(Cl)cc2)cc1` [Compound 77, (4-chlorophenyl)methyl N-[4-({1-[2-(2-methoxyethyl)pyrazol-3-yl]-N-methylformamido}methyl)phenyl]carbamate], the “AC1.4 Human” value was found to be 0.65 µM and the pEC50 is 5.78.
For `O=C(Nc1ccc(CNC(=O)c2ccncc2F)cc1)OCc1ccc(Cl)cc1` [Compound 78, (4-chlorophenyl)methyl N-(4-{[(3-fluoropyridin-4-yl)formamido]methyl}phenyl)carbamate] the same measures were 0.65 µM and 5.13.
For `CC(C)(C)OC(=O)N1CCC(Cc2ccc(NC(=O)OCc3cnco3)cc2)CC1` [Compound 79, tert-butyl 4-(4-(((oxazol-5-ylmethoxy)carbonyl)ami-no)benzyl)piperidine-1-carboxylate] the same measures were 0.66 µM and 4.63.
In the case of `O=C(Nc1ccc(CC2CCN(C3COC3)CC2)cc1)OCc1cnco1` [Compound 80, oxazol-5-ylmethyl (4-((1-(oxetan-3-yl)piperidin-4-yl)methyl)phenyl)carbamate], the “AC1.4 Human” value turned out to be 0.66 µM and the pEC50 is 4.54.
On to `CN1CC(=O)NC[C@@H]1c1ccc(NC(=O)OCc2ccc(Cl)cc2F)cc1` [Compound 81, 4-chloro-2-fluorobenzyl (S)-(4-(1-methyl-5-oxopiperazin-2-yl)phenyl)carbamate], for which the “AC1.4 Human” value was determined as 0.66 µM and the negative logarithm of the EC50 (pEC50) is 5.47.
As for `CCc1ccc(C(=O)NCc2ccc(NC(=O)OCc3ccc(Cl)cc3)cc2)cn1` [Compound 82, (4-chlorophenyl)methyl N-(4-{[(6-ethylpyridin-3-yl)formamido]methyl}phenyl)carbamate], the “AC1.4 Human” value worked out at 0.66 µM and the pEC50 is 5.41.
With `COc1ccc(COC(=O)Nc2ccc(CN3CCN(c4ccccn4)CC3)cc2)cc1` [Compound 83, (4-methoxyphenyl)methyl N-(4-{[4-(pyridin-2-yl)piperazin-1-yl]methyl}phenyl)carbamate], the “AC1.4 Human” value was 0.66 µM and the pEC50 was 5.09.
Consider `O=C(Nc1ccc(CN2CCC3(CC3)C2=O)cc1)OCc1ccc(Cl)cc1` [Compound 84, (4-chlorophenyl)methyl N-[4-({4-oxo-5-azaspiro[2.4]heptan-5-yl}methyl)phenyl]carbamate], for which the “AC1.4 Human” value is 0.66 µM and the negative logarithm of the EC50 (pEC50) is 5.51.
On the same counts, the results for `Cc1ncc(C(=O)N(C)Cc2ccc(NC(=O)OCc3ccc(Cl)cc3)cc2)o1` [Compound 85, (4-chlorophenyl)methyl N-(4-{[N-methyl-1-(2-methyl-1,3-oxazol-5-yl)formamido]methyl}phenyl)carbamate] are 0.67 µM and 5.20.
On to `O=C(Nc1ccc(CN2CCOCC2=O)cc1)OCc1ccc(Cl)cc1` [Compound 86, (4-chlorophenyl)methyl N-{4-[(3-oxomorpholin-4-yl)methyl]phenyl}carbamate], for which the “AC1.4 Human” value worked out at 0.68 µM and the negative-log EC50 (pEC50) is 5.21.
With `CC(C)C(=O)N1CCC(Cc2ccc(NC(=O)OCc3ccc(Cl)cc3)cc2)CC1` [Compound 87, 4-chlorobenzyl (4-((1-isobutyrylpiperidin-4-yl)methyl)phenyl)carbamate], the “AC1.4 Human” value was 0.68 µM and the pEC50 is 5.76.
On to `O=C(Nc1ccc(C2CCN(CC(F)(F)F)CC2)cc1)OCc1cnco1` [Compound 88, 1,3-oxazol-5-ylmethyl N-{4-[1-(2,2,2-trifluoroethyl)piperidin-4-yl]phenyl}], for which the “AC1.4 Human” value was found to be 0.69 µM and the negative-log EC50 (pEC50) is 4.43.
For the compound `C[C@@H](c1ccc(NC(=O)OCc2ccc(Cl)cc2)cc1)N(C)C(=O)N1CCC1` [Compound 89, 4-chlorobenzyl (S)-(4-(1-(N-methylazetidine-1-carboxamido)ethyl)phenyl)carbamate], the “AC1.4 Human” value came to 0.71 µM and the negative-log EC50 (pEC50) is 5.03.
On the same counts, the results for `COc1cc(C(=O)N(C)Cc2ccc(NC(=O)OCc3ccc(Cl)cc3)cc2)n(C)n1` [Compound 90, (4-chlorophenyl)methyl N-(4-{[1-(5-methoxy-2-methylpyrazol-3-yl)-N-methylformamido]methyl}phenyl)carbamate] are 0.72 µM and 5.14.
For `CN(Cc1ccc(NC(=O)OCc2ccc(Cl)cc2)cc1)C(=O)c1ccn[nH]1` [Compound 91, (4-chlorophenyl)methyl N-{4-[(N-methyl-1-2H-pyrazol-3-ylformamido)methyl]phenyl}carbamate] the same measures were 0.74 µM and 5.42.
On the same counts, the results for `COc1cnn(C)c1C(=O)N[C@@H](C)c1ccc(NC(=O)OCc2ccc(Cl)cc2)cc1` [Compound 92, (4-chlorophenyl)methyl N-{4-[(1S)-1-[(4-methoxy-2-methylpyrazol-3-yl)formamido]ethyl]phenyl}carbamate] are 0.75 µM and 5.49.
Consider `CC(=O)N1CCC(OCc2ccc(NC(=O)OCc3ccc(Cl)cc3)cc2)CC1` [Compound 93, 4-chlorobenzyl (4-(((1-acetylpiperidin-4-yl)oxy)methyl)phenyl)carbamate], for which the “AC1.4 Human” value was found to be 0.75 µM and the pEC50 is 5.17.
`CC(C)Cn1nccc1C(=O)N(C)Cc1ccc(NC(=O)OCc2ccc(Cl)cc2)cc1` [Compound 94, (4-chlorophenyl)methyl N-[4-({N-methyl-1-[2-(2-methylpropyl)pyrazol-3-yl]formamido}methyl)phenyl]carbamate]: the “AC1.4 Human” value came to 0.75 µM and the negative logarithm of the EC50 (pEC50) was 5.63.
`COc1cc(C(=O)N[C@@H](C)c2ccc(NC(=O)OCc3ccc(Cl)cc3)cc2)n(C)n1` [Compound 95, (4-chlorophenyl)methyl N-(4-[(1S)-1-[(5-methoxy-2-methylpyrazol-3-yl)formamido]ethyl]phenyl}carbamate]: the “AC1.4 Human” value is 0.75 µM and the negative logarithm of the EC50 (pEC50) was 5.51.
For `C[C@H](NC(=O)N1CCC1)c1ccc(NC(=O)OCc2ccc(Cl)cc2)cc1` [Compound 96] the same measures were 0.75 µM and 5.46.
As for `C[C@H](NC(=O)C1CCC(F)(F)C1)c1ccc(NC(=O)OCc2cnco2)cc1` (stereo partly drawn) [Compound 97, 1,3-oxazol-5-ylmethyl N-{4-[(1S)-1-[(3,3-difluorocyclopentyl)formamido]ethyl]phenyl}carbamate], the “AC1.4 Human” value came out at 0.76 µM and the pEC50 was 4.63.
